Here are results for ten compounds from patent US9637516B2, “Betulinic acid proline derivatives as HIV inhibitors” (HETERO RESEARCH FOUNDATION, priority 2012, dated 2017).

One series has as its system HIV-1 strain 92HT599. Description: Antiviral activity: p24 estimation in MT2 cells infected with HIV-1 strain 92HT599. To be noted: for IC50: Human immunodeficiency virus 1, HIV-1 92HT599, p24; for inhibition at 0.1 µM: Human immunodeficiency virus 1, 100 nM; for inhibition at 0.1 µM / inhibition at 1 µM: HIV-1 92HT599, p24, ~96 hours; for inhibition at 1 µM: Human immunodeficiency virus 1, 1000 nM. The class given is cell-based. The protocol:
MT2 cells were infected with HIV-1 strain 92HT599 (10 TCID 50/30000 cells). The infected cells were plated at the concentration of ˜30 000 cells per well in 96 well plate. Test compound was added to the micro plate in defined format with the final concentration of DMSO (vehicle) is not more than 1%. Incubation was carried out in CO2 incubator for ˜96 hours for viral infection. At the end of incubation period an aliquot from each well was taken for p24 estimation. The quantitation of p24 is an index for antiviral activity of the compound. Percent inhibition was calculated with reference to control values (vehicle controls). p-24 estimation was carried out using Advance biosciences kit as per the procedure detailed by supplier.

Series [1] is described as follows: Single dose oral pharmacokinetic study. Type of series: in vivo, mice. Particulars: mouse, plasma. The protocol: The test item was administered through oral route to animals (rat/mice) at 30 mg/kg dose in a suitable vehicle at 10 ml/kg dose volume. Blood samples (˜50 uL at each time point) were collected from retro-orbital plexus using K3 EDTA as anticoagulant in eppendorf tubes at defined time intervals under light ether anesthesia. The samples were centrifuged at 3500×g to separate plasma and stored at −80° C. until analysis.
Sample analysis: Test samples were analyzed using LC-MS-MS after developing fit-for-purpose method for each of test compound.

Where [2] appears, read: Mice oral PK @30 mg/kg (Table 4).
The mark [3] stands for this setting: Mice oral PK @30 mg/kg (Table 3).

For the compound `CC1(C)C(C(=O)O)CC1C(=O)O[C@H]1CC[C@]2(C)[C@H]3CC[C@@H]4[C@H]5[C@H](C6(C)CC6)CC[C@]5(C(=O)N5CCC[C@H]5c5ncc(-c6ccc(F)cc6)[nH]5)CC[C@@]4(C)[C@]3(C)CC[C@H]2C1(C)C` (stereo partly drawn) [Compound 42, 3-((((1R,3aS,5aR,5bR,7aR,9S,11aR,11bR,13aR,13bR)-3a-((S)-2-(5-(4-fluorophenyl)-1H-imidazol-2-yl)pyrrolidine-1-carbonyl)-5a,5b,8,8,11a-pentamethyl-1-(1-methylcyclopropyl)icosahydro-1H-cyclopenta[a]chrysen-9-yl)oxy)carbonyl)-2,2-dimethylcyclobutane-1-carboxylic acid], the IC50 – broadly, the midpoint of a concentration-inhibition curve – with HIV-1 strain 92HT599 is less than 0.3 nM. For the same compound, in series [1] (setting [2]), the total exposure AUC(0-inf) – broadly, total exposure, with the tail of the curve extrapolated – stood at 448 µg·h/mL; the AUC(0-t) – broadly, the area under the concentration-time curve up to a stated or last time point – stood at 254 µg·h/mL; the highest level (Cmax) was 9300 ng/mL; the half-life (in general, the time needed for the level to fall by half in the phase considered) is 37.3 h.

With `CC1(C)C(C(=O)O)CC1C(=O)O[C@H]1CC[C@]2(C)[C@H]3CC[C@@H]4[C@H]5[C@H](C6(C)CC6)CC[C@]5(C(=O)N5CCC[C@H]5c5ncc(-c6cccnc6)[nH]5)CC[C@@]4(C)[C@]3(C)CC[C@H]2C1(C)C` (stereo partly drawn) [Compound 32, 2,2-dimethyl-3-((((1R,3aS,5aR,5bR,7aR,9S,11aR,11bR,13aR,13bR)-5a,5b,8,8,11a-pentamethyl-1-(1-methylcyclopropyl)-3a-((S)-2-(5-(pyridin-3-yl)-1H-imidazol-2-yl)pyrrolidine-1-carbonyl)icosahydro-1H-cyclopenta[a]chrysen-9-yl)oxy)carbonyl)cyclobutane-1-carboxylic acid], in the series with HIV-1 strain 92HT599, the inhibition (as a rule, the change of the read-out against control, counted positive when it falls) at 0.1 µM is 100% and the inhibition at 1 µM is 100%.

As to `C=C(C)[C@@H]1CC[C@]2(C(=O)N3CCC[C@@H]3c3nc(-c4ccccc4)no3)CC[C@]3(C)[C@H](CC[C@@H]4[C@@]5(C)CC[C@H](OC(=O)CC(C)(C)C(=O)O)C(C)(C)[C@@H]5CC[C@]43C)[C@@H]12` [Compound 1, 2,2-dimethyl-4-oxo-4-((1R,3aS,5aR,5bR,7aR,9S,11aR,11bR,13aR,13bR)-5a,5b,8,8,11a-pentamethyl-3a-((R)-2-(3-phenyl-1,2,4-oxadiazol-5-yl)pyrrolidine-1-carbonyl)-1-(prop-1-en-2-yl)icosahydro-1H-cyclopenta[a]chrysen-9-yloxy)butanoic acid], the IC50 in the series on HIV-1 strain 92HT599 was 5.02 nM. Also, in series [1] (setting [3]), the AUC(0-t) was 125 µg·h/mL; the peak level (Cmax) was 12700 ng/mL; the time to peak (Tmax) (in general, the time from dosing to the highest level) worked out at 6 h.

Turning to `C=C(C)[C@@H]1CC[C@]2(C(=O)N3CCC[C@H]3c3ncc(-c4ccc(O)cc4)[nH]3)CC[C@]3(C)[C@H](CC[C@@H]4[C@@]5(C)CC[C@H](OC(=O)C6CC(C(=O)O)C6(C)C)C(C)(C)[C@@H]5CC[C@]43C)[C@@H]12` (stereo partly drawn) [Compound 36, 3-((((1R,3aS,5aR,5bR,7aR,9S,11aR,11bR,13aR,13bR)-3a-((S)-2-(5-(4-hydroxyphenyl)-1H-imidazol-2-yl)pyrrolidine-1-carbonyl)-5a,5b,8,8,11a-pentamethyl-1-(prop-1-en-2-yl)icosahydro-1H-cyclopenta[a]chrysen-9-yl)oxy)carbonyl)-2,2-dimethylcyclobutane-1-carboxylic acid], in series [1] (setting [2]), the AUC(0-inf) came to 518 µg·h/mL; the AUC(0-t) amounted to 334 µg·h/mL; the peak concentration (Cmax) (in general, the highest concentration seen after dosing) was determined as 10900 ng/mL; the half-life is 30.3 h.

Consider `C=C(C)[C@@H]1CC[C@]2(C(=O)N3CCCC3c3ncc(-c4ccc(OC)cc4)[nH]3)CC[C@]3(C)[C@H](CC[C@@H]4[C@@]5(C)CC[C@H](OC(=O)[C@H]6C[C@@H](C(=O)O)C6(C)C)C(C)(C)[C@@H]5CC[C@]43C)[C@@H]12` (stereo partly shown) [Compound 15], for which, in the series with HIV-1 strain 92HT599, the inhibition at 0.1 µM was 98% and the inhibition at 1 µM was 97%. In series [1] (setting [2]), this compound gave an AUC(0-inf) of 446 µg·h/mL, an area under the curve AUC(0-t) of 286 µg·h/mL, a maximum concentration (Cmax) of 11400 ng/mL and a half-life of 30.9 h.

In the case of `CC(C)(CC(=O)O[C@H]1CC[C@]2(C)[C@H]3CC[C@@H]4[C@H]5[C@H](C6(C)CC6)CC[C@]5(C(=O)N5CCC[C@H]5c5ncc(-c6cccnc6)[nH]5)CC[C@@]4(C)[C@]3(C)CC[C@H]2C1(C)C)C(=O)O` [Compound 30, 2,2-dimethyl-4-oxo-4-(((1R,3aS,5aR,5bR,7aR,9S,11aR,11bR,13aR,13bR)-5a,5b,8,8,11a-pentamethyl-1-(1-methylcyclopropyl)-3a-((S)-2-(5-(pyridin-3-yl)-1H-imidazol-2-yl)pyrrolidine-1-carbonyl)icosahydro-1H-cyclopenta[a]chrysen-9-yl)oxy)butanoic acid], the IC50 in the series on HIV-1 strain 92HT599 was 3.83 nM. In series [1] (setting [2]), this compound showed an AUC(0-inf) of 57.8 µg·h/mL, an area under the curve AUC(0-t) of 54.6 µg·h/mL, a Cmax of 6400 ng/mL and a half-life of 1.7 h.

For the compound `C=C(C)[C@@H]1CC[C@]2(C(=O)N3CCC[C@H]3c3ncc(-c4ccccc4)[nH]3)CC[C@]3(C)[C@H](CC[C@@H]4[C@@]5(C)CC[C@H](OC(=O)[C@@H]6C[C@H](C(=O)O)C6(C)C)C(C)(C)[C@@H]5CC[C@]43C)[C@@H]12` [Compound 27, (1S,3R)-2,2-dimethyl-3-((((1R,3aS,5aR,5bR,7aR,9S,11aR,11bR,13aR,13bR)-5a,5b,8,8,11a-pentamethyl-3a-((S)-2-(5-phenyl-1H-imidazol-2-yl)pyrrolidine-1-carbonyl)-1-(prop-1-en-2-yl)icosahydro-1H-cyclopenta[a]chrysen-9-yl)oxy)carbonyl)cyclobutane-1-carboxylic acid], the IC50 in the series with HIV-1 strain 92HT599 is 11 nM. In series [1] (setting [2]), this compound had a total exposure AUC(0-inf) of 535 µg·h/mL, an AUC(0-t) of 231 µg·h/mL, a Cmax of 10100 ng/mL and a half-life of 38.1 h.

`C=C(C)[C@@H]1CC[C@]2(C(=O)N3CCCC3c3ncc(-c4ccc(C#N)cc4)[nH]3)CC[C@]3(C)[C@H](CC[C@@H]4[C@@]5(C)CC[C@H](OC(=O)[C@H]6C[C@@H](C(=O)O)C6(C)C)C(C)(C)[C@@H]5CC[C@]43C)[C@@H]12` (stereo partly shown) [Compound 19]: in the series with HIV-1 strain 92HT599, the inhibition at 0.1 µM was 86% and the inhibition at 1 µM was 100%.

As to `C=C(C)[C@@H]1CC[C@]2(C(=O)N3CCC[C@@H]3c3ncc(-c4ccccc4)[nH]3)CC[C@]3(C)[C@H](CC[C@@H]4[C@@]5(C)CC[C@H](OC(=O)C6CC(C(=O)O)C6(C)C)C(C)(C)[C@@H]5CC[C@]43C)[C@@H]12` (stereo partly drawn) [Compound 41, 2,2-dimethyl-3-((((1R,3aS,5aR,5bR,7aR,9S,11aR,11bR,13aR,13bR)-5a,5b,8,8,11a-pentamethyl-3a-((R)-2-(5-phenyl-1H-imidazol-2-yl)pyrrolidine-1-carbonyl)-1-(prop-1-en-2-yl)icosahydro-1H-cyclopenta[a]chrysen-9-yl)oxy)carbonyl)cyclobutane-1-carboxylic acid], in the series with HIV-1 strain 92HT599, the inhibition at 0.1 µM is 98% and the inhibition at 1 µM is 99%.

Regarding `C=C(C)[C@@H]1CC[C@]2(C(=O)N3CCC[C@H]3c3ncc(-c4ccc([N+](=O)[O-])cc4)[nH]3)CC[C@]3(C)[C@H](CC[C@@H]4[C@@]5(C)CC[C@H](OC(=O)[C@H]6C[C@@H](C(=O)O)C6(C)C)C(C)(C)[C@@H]5CC[C@]43C)[C@@H]12` [Compound 17], in the series on HIV-1 strain 92HT599, the inhibition at 0.1 µM was 96% and the inhibition at 1 µM was 100%.
